Results published in US8653087B2, “Pyrido [5, 4-D] pyrimidines as cell proliferation inhibitors” (Boehringer Ingelheim International GmbH, priority 2008, dated 2014).

target: B-Raf (V600E)-kinase (Homo sapiens (Human), UniProt P15056, V600E); assay: Kinase test B-RAF (V600E); type: biochemical; conditions: B-RAF (V600E) kinase test, 250 μM ATP
Method in brief: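 B-Raf (V600E) (0.5 ng) preincubated with compound 24 h at RT (5% DMSO), then reacted 60 min at RT with 250 μM ATP and biotinylated MEK1 as substrate. Phospho-MEK (Ser217/221) captured on streptavidin and detected by europium time-resolved fluorescence; IC50 from dose-response curves.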

Sequence of B-Raf (V600E)-kinase (P15056 whole entry V600E): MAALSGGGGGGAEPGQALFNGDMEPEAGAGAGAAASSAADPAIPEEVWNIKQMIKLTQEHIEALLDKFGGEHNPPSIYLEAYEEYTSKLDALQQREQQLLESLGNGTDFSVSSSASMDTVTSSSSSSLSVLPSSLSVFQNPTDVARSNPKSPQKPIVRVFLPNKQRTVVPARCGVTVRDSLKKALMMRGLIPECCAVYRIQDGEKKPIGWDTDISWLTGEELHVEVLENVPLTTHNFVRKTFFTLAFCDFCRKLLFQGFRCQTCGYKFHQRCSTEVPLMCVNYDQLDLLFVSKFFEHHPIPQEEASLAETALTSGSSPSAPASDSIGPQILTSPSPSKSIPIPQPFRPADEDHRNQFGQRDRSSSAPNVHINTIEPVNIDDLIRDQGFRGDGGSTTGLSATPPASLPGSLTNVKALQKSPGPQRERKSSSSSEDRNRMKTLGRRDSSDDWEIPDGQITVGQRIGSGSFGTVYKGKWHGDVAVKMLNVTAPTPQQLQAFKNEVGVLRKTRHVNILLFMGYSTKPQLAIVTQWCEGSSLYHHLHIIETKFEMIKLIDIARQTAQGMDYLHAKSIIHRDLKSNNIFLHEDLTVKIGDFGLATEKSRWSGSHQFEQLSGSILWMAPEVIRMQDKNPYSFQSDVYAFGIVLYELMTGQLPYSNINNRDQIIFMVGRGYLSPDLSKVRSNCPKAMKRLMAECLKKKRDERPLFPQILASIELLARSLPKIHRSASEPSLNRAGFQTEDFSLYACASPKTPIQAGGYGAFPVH

Row | Compound | IC50 [nM]
1 | Cc1cn(-c2cc(NC(=O)c3ccc(C)c(Nc4ncnc5cnc(N6CCC(F)(F)C6)nc45)c3)cc(C(F)(F)F)c2)cn1 [III-450] | 3
2 | Cc1cn(-c2cc(NC(=O)c3ccc(C)c(Nc4ncnc5cnc(N6CC[C@H](F)C6)nc45)c3)cc(C(F)(F)F)c2)cn1 [III-454] | 4
3 | Cc1ccc(C(=O)Nc2cc(N3CCN(CC(C)C)CC3)cc(C(F)(F)F)c2)cc1Nc1ncnc2cnc(N3CC[C@H](F)C3)nc12 [III-455] | 8
4 | Cc1ccc(C(=O)Nc2cc(N3CCN(C(C)C)CC3)cc(C(F)(F)F)c2)cc1Nc1ncnc2cnc(N3CC[C@H](F)C3)nc12 [III-456] | 3
5 | Cc1ccc(C(=O)Nc2cc(N3CCN(C)CC3)cc(C(F)(F)F)c2)cc1Nc1ncnc2cnc(N3CC[C@H](F)C3)nc12 [III-457] | 4
6 | Cc1ccc(C(=O)Nc2cc(N3CCN(CC(C)C)CC3)cc(C(F)(F)F)c2)cc1Nc1ncnc2cnc(N3CCOCC3)nc12 [III-460] | 4
7 | COCCN(C)c1ncc2ncnc(Nc3cc(C(=O)Nc4cc(C(C)(C)C)nn4C)ccc3C)c2n1 [III-465] | 2
8 | COCCN(C)c1ncc2ncnc(Nc3cc(C(=O)Nc4cccc(C(F)(F)F)c4)ccc3C)c2n1 [III-467] | 2
9 | CCN1CCN(c2cc(NC(=O)c3ccc(C)c(Nc4ncnc5cnc(N(C)CCOC)nc45)c3)cc(C(F)(F)F)c2)CC1 [III-470] | 2
10 | COCCN(C)c1ncc2ncnc(Nc3cc(C(=O)Nc4cc(C(C)(C)C)n[nH]4)ccc3C)c2n1 [III-471] | 4
11 | COCCN(C)c1ncc2ncnc(Nc3cc(C(=O)Nc4cc(C(F)(F)F)ccn4)ccc3C)c2n1 [III-472] | 2
12 | Cc1ccc(C(=O)Nc2cc(C(C)(C)C)nn2C)cc1Nc1ncnc2cnc(N(C)CC3CCCCO3)nc12 (centres unmarked) [III-476] | 17
13 | Cc1ccc(C(=O)Nc2cc(C(C)(C)C)on2)cc1Nc1ncnc2cnc(N(C)CC3CCCCO3)nc12 (centres unmarked) [III-480] | 4
14 | Cc1ccc(C(=O)Nc2cc(C(C)(C)C)on2)cc1Nc1ncnc2cnc(N3CCN(CC4CCOC4)CC3)nc12 (centres unmarked) [III-482] | 4
15 | Cc1ccc(C(=O)Nc2cc(C(C)(C)C)on2)cc1Nc1ncnc2cnc(N3CCN4CCCC4C3)nc12 (centres unmarked) [III-484] | 3
16 | Cc1ccc(C(=O)Nc2cc(C(C)(C)C)on2)cc1Nc1ncnc2cnc(N3CCC(N4CCCCC4)CC3)nc12 [III-485] | 3
17 | Cc1ccc(C(=O)Nc2cc(C(C)(C)C)on2)cc1Nc1ncnc2cnc(N3CCN(C4CCN(C)CC4)CC3)nc12 [III-486] | 4
18 | Cc1ccc(C(=O)Nc2cc(C(C)(C)C)on2)cc1Nc1ncnc2cnc(NCC(C)C)nc12 [III-487] | 13
19 | Cc1ccc(C(=O)Nc2cc(C(C)(C)C)on2)cc1Nc1ncnc2cnc(N3CCC(N4C[C@@H](C)O[C@@H](C)C4)CC3)nc12 [III-488] | 6
20 | Cc1ccc(C(=O)Nc2cc(C(C)(C)C)on2)cc1Nc1ncnc2cnc(N3CCC(N4CCCC4)CC3)nc12 [III-490] | 2
21 | CCN1CCN(c2ncc3ncnc(Nc4cc(C(=O)Nc5cc(C(C)(C)C)on5)ccc4C)c3n2)CC1 [III-491] | 2
22 | Cc1ccc(C(=O)Nc2cc(C(C)(C)C)on2)cc1Nc1ncnc2cnc(N3CCN(C(C)C)CC3)nc12 [III-492] | 2
23 | Cc1ccc(C(=O)Nc2cc(C(C)(C)C)on2)cc1Nc1ncnc2cnc(N3CCN(C4CC4)CC3)nc12 [III-493] | 5

Row | Compound | IC50 [nM]
24 | Cc1ccc(C(=O)Nc2cc(C(C)(C)C)on2)cc1Nc1ncnc2cnc(N3CCN(CC(C)C)CC3)nc12 [III-494] | 4
25 | Cc1ccc(C(=O)Nc2cc(C(C)(C)C)on2)cc1Nc1ncnc2cnc(N3CCC(N(C)C)CC3)nc12 [III-495] | 2
26 | Cc1ccc(C(=O)Nc2cc(C(C)(C)C)on2)cc1Nc1ncnc2cnc(N3C[C@@H](C)N[C@@H](C)C3)nc12 [III-496] | 2
27 | Cc1ccc(C(=O)Nc2cc(C(C)(C)C)on2)cc1Nc1ncnc2cnc(N3C[C@H]4C[C@@H]3CN4C)nc12 [III-497] | 2
28 | Cc1ccc(C(=O)Nc2cc(C(C)(C)C)nn2C)cc1Nc1ncnc2cnc(NCC(C)C)nc12 [III-499] | 3
29 | COCCN1CCN(c2ncc3ncnc(Nc4cc(C(=O)Nc5cc(N6CCN(C)CC6)c(F)c(C(F)(F)F)c5)ccc4C)c3n2)CC1 [III-501] | 25
30 | COCCN1CCN(c2ncc3ncnc(Nc4cc(C(=O)Nc5cc(-n6cnc(C)c6)cc(C(F)(F)F)c5)ccc4C)c3n2)CC1 [III-502] | 8
31 | Cc1ccc(C(=O)Nc2cc(C(C)(C)C)on2)cc1Nc1ncnc2cnc(N3CCN(C)CC3)nc12 [III-504] | 2
32 | COCCN1CCN(c2ncc3ncnc(Nc4cc(C(=O)Nc5cc(C(C)(C)C)cc(NS(C)(=O)=O)c5OC)ccc4C)c3n2)CC1 [III-505] | 49
33 | Cc1ccc(C(=O)Nc2cc(N3CCN(C)CC3)c(F)c(C(F)(F)F)c2)cc1Nc1ncnc2cnc(NC3CCOC3)nc12 (centres unmarked) [III-506] | 4
34 | Cc1ccc(C(=O)Nc2cc(C(C)(C)C)n[nH]2)cc1Nc1ncnc2cnc(N3CC[C@H](F)C3)nc12 [III-508] | 3
35 | Cc1ccc(C(=O)Nc2cc(N3CCN(C)CC3)c(F)c(C(F)(F)F)c2)cc1Nc1ncnc2cnc(N3CCN(CC4CCN(C)CC4)CC3)nc12 [III-509] | 5
36 | Cc1ccc(C(=O)Nc2cc(N3CCN(C)CC3)c(F)c(C(F)(F)F)c2)cc1Nc1ncnc2cnc(N3CC[C@H](F)C3)nc12 [III-511] | 4
37 | Cc1ccc(C(=O)Nc2cc(C(C)(C)C)n[nH]2)cc1Nc1ncnc2cnc(NCc3ccccc3)nc12 [III-512] | 2
38 | COCCN1CCN(c2ncc3ncnc(Nc4cc(C(=O)Nc5cc(C(C)(C)C)on5)ccc4C)c3n2)CC1 [III-517] | 3
39 | Cc1ccc(C(=O)Nc2cc(N3CCN(C)CC3)cc(C(F)(F)F)c2)cc1Nc1ncnc2cnc(N(C)CCF)nc12 [III-518] | 2
40 | Cc1ccc(C(=O)Nc2cccc(C(C)(C)C#N)c2)cc1Nc1ncnc2cnc(NCC(C)C)nc12 [III-520] | 2
41 | Cc1ccc(C(=O)Nc2cc(C(C)(C)C)on2)cc1Nc1ncnc2cnc(NCc3ccccc3)nc12 [III-521] | 2
42 | Cc1ccc(C(=O)Nc2cc(C(F)(F)F)ccn2)cc1Nc1ncnc2cnc(NCc3ccccc3)nc12 [III-522] | 3
43 | Cc1ccc(C(=O)Nc2cc(N3C[C@@H](C)N[C@@H](C)C3)cc(C(F)(F)F)c2)cc1Nc1ncnc2cnc(N3CCOCC3)nc12 [III-524] | 3
44 | Cc1ccc(C(=O)Nc2cc(N3CCOCC3)cc(C(F)(F)F)c2)cc1Nc1ncnc2cnc(N3CCOCC3)nc12 [III-525] | 3
45 | Cc1ccc(C(=O)Nc2cc(N3CCN(CCO)CC3)cc(C(F)(F)F)c2)cc1Nc1ncnc2cnc(N3CCOCC3)nc12 [III-526] | 4

Results, then the compound that gave them:

Row | IC50 [nM] | Compound
46 | 1 | Cc1ccc(C(=O)Nc2cc(N3CCCN(C)CC3)cc(C(F)(F)F)c2)cc1Nc1ncnc2cnc(N3CC[C@H](F)C3)nc12 [III-458]
47 | 2 | Cc1ccc(C(=O)Nc2cc(CN3CCCC3)cc(C(F)(F)F)c2)cc1Nc1ncnc2cnc(N3CC[C@H](F)C3)nc12 [III-459]
48 | 2 | Cc1ccc(C(=O)Nc2cc(N3CCN(C(C)C)CC3)cc(C(F)(F)F)c2)cc1Nc1ncnc2cnc(N3CCOCC3)nc12 [III-461]
49 | 1 | Cc1ccc(C(=O)Nc2cc(N3CCN(C)CC3)cc(C(F)(F)F)c2)cc1Nc1ncnc2cnc(N3CCOCC3)nc12 [III-462]
50 | 2 | Cc1ccc(C(=O)Nc2cc(N3CCCN(C)CC3)cc(C(F)(F)F)c2)cc1Nc1ncnc2cnc(N3CCOCC3)nc12 [III-463]
51 | < 1 | COCCN(C)c1ncc2ncnc(Nc3cc(C(=O)Nc4cccc(C(C)(C)C)c4)ccc3C)c2n1 [III-468]
52 | < 1 | COCCN(C)c1ncc2ncnc(Nc3cc(C(=O)Nc4cc(N(C)CCN(C)C)cc(C(F)(F)F)c4)ccc3C)c2n1 [III-469]
53 | 1 | COCCN(C)c1ncc2ncnc(Nc3cc(C(=O)Nc4ccc(OC)c(C(F)(F)F)c4)ccc3C)c2n1 [III-473]
54 | 1 | COCCN(C)c1ncc2ncnc(Nc3cc(C(=O)Nc4cc(C(C)(C)C)on4)ccc3C)c2n1 [III-474]
55 | 1 | Cc1ccc(C(=O)Nc2cc(C(C)(C)C)on2)cc1Nc1ncnc2cnc(N3CCN(CCCN4CCCC4)CC3)nc12 [III-481]
56 | 1 | Cc1ccc(C(=O)Nc2cc(C(C)(C)C)on2)cc1Nc1ncnc2cnc(N3CCN(CC4CCCN(C)C4)CC3)nc12 (centres unmarked) [III-483]
57 | 1 | Cc1ccc(C(=O)Nc2cc(C(C)(C)C)on2)cc1Nc1ncnc2cnc(N3CCC(N4CCOCC4)CC3)nc12 [III-489]
58 | < 1 | Cc1ccc(C(=O)Nc2cccc(C(C)(C)C)c2)cc1Nc1ncnc2cnc(NCC(C)C)nc12 [III-500]
59 | 1 | Cc1ccc(C(=O)Nc2cc(N3CCN(C)CC3)c(F)c(C(F)(F)F)c2)cc1Nc1ncnc2cnc(N3CCOCC3)nc12 [III-503]
60 | 1 | Cc1cn(-c2cc(NC(=O)c3ccc(C)c(Nc4ncnc5cnc(NC6CCOC6)nc45)c3)cc(C(F)(F)F)c2)cn1 (centres unmarked) [III-507]
61 | < 1 | Cc1ccc(C(=O)Nc2cc(C(F)(F)F)ccn2)cc1Nc1ncnc2cnc(N3CCN(CC4CCN(C)CC4)CC3)nc12 [III-510]
62 | 1 | Cc1ccc(C(=O)Nc2cc(C(C)(C)C)nn2C)cc1Nc1ncnc2cnc(N3CCOCC3)nc12 [III-513]
63 | 1 | Cc1ccc(C(=O)Nc2cc(N3CCCN(C)CC3)cc(C(F)(F)F)c2)cc1Nc1ncnc2cnc(N(C)CCF)nc12 [III-514]
64 | < 1 | Cc1ccc(C(=O)Nc2cc(C(C)(C)C)n[nH]2)cc1Nc1ncnc2cnc(N3CCOCC3)nc12 [III-515]
65 | < 1 | Cc1ccc(C(=O)Nc2cc(C(C)(C)C)on2)cc1Nc1ncnc2cnc(N3CCOCC3)nc12 [III-516]
66 | < 1 | Cc1ccc(C(=O)Nc2cc(C(F)(F)F)ccn2)cc1Nc1ncnc2cnc(NCC(C)C)nc12 [III-519]
67 | 1 | Cc1ccc(C(=O)Nc2cc(OCCN3CCCC3)cc(C(F)(F)F)c2)cc1Nc1ncnc2cnc(N3CCOCC3)nc12 [III-523]
68 | < 1 | Cc1ccc(C(=O)Nc2cc(N3CCN[C@H](C)C3)cc(C(F)(F)F)c2)cc1Nc1ncnc2cnc(N3CCOCC3)nc12 [III-527]
